# Test results reported in publication PMC12668308, “A Novel Antimalarial Agent that Inhibits Protein Synthesis in Plasmodium falciparum” (Angewandte Chemie (International Ed. in English), 2025).
# Where two headings read alike, the source gives them in different places.
# Columns and labels:
# [1] = system: P. falciparum NF54 strain; test: [3H]-hypoxanthine incorporation assay, asexual blood stage; type: cell-based, Plasmodium falciparum; details: Plasmodium falciparum
# Experimental: (§1) P. falciparum asexual blood stage parasites were cultured in human red blood cells (RBC, Blutspende SRK, Zurich) at a hematocrit of 5% in RPMI 1640 medium. The RPMI 1640 medium (ThermoFisher Scientific #51800−043) was supplemented with the following: 24 mM NaHCO3 (pH 7.3, Sigma-Aldrich #31437−500G-R), 25 mM Hepes (Sigma-Aldrich #H4034−500G), 0.36 mM hypoxanthine (Sigma-Aldrich # H9377−25G), 100 µg mL^-1 neomycin (Sigma-Aldrich #N6386−100G) and 0.5% Albumax II (Thermo Fisher #11021−045). Additionally, 2 mM choline chloride (279 mg/L, Sigma-Aldrich #C7527−100G) was added to the culture to block the induction of sexual commitment as described. ^[31^] The RPMI 1640 medium and components were dissolved in water (Milli-Q purified), stirred for at least 3 h, and then sterile filtered (0.22 μm pore size) with a bottle top filter (Corning # 431118). Parasite cultures were maintained in an atmosphere of 3% O2, 4% CO2, and 93% N2 in air-tight chambers at 37 °C. The [^3H]-hypoxanthine incorporation assay was used to test compound activity in the specific parasite lines as described.^[32^] Briefly, compounds were dissolved in DMSO (10 mM) and diluted in a hypoxanthine-free culture medium. A limiting dilution was performed over a 64-fold range (6-step twofold dilution) in a 96-well plate in duplicates. For every starting concentration, a limiting dilution was performed over a 64-fold range (6-step twofold dilution) in a 96-well plate in two biological duplicates. Parasites were added at 100 µL to each well containing the compound to obtain a final parasitemia of 0.3% and haematocrit of 1.25%. The plates were incubated for 48 h before 0.25 µCi of [^3H]-hypoxanthine was added per well for an additional 24 h. Parasites were harvested on a glass-fiber filter with a Microbeta FilterMate cell harvester (Perkin Elmer, Waltham, USA) and radioactivity was counted using a MicroBeta2 liquid scintillation counter (Perkin Elmer, Waltham, US). […] The fifty percent inhibitory concentration (IC50) was calculated by using nonlinear, four parameter (variable slope) curve fitting as described ^[33^] after importing into GraphPad Prism (version 8.3.0).
# PfIspD = PfIspD (Plasmodium falciparum, UniProt W7KNE8); test: PfIspD inhibition; type: biochemical; details: mean ± s.d.
# Dd2b2^31-R1.1 = test: [3H]-hypoxanthine incorporation assay; type: cell-based, Plasmodium falciparum; details: Plasmodium falciparum, read-out: mean IC50 value ± s.d.
# Experimental: as §1
# (§2) 31 was used for resistance selection studies using the strain Dd2b2 (kindly provided by David Fidock). Resistance selection was done as described in ^[34^]. As summarized in Table S3, an initial inoculum of 2 x 10^9 asexual blood stage parasites (at 2-2.5% parasitemia) were cultured in three independent flasks. […] Cloning via limiting dilution was performed to obtain resistant clones for further characterization as described in section 2.2.5.
# Dd2b2^31-R1.2 = test: [3H]-hypoxanthine incorporation assay; type: cell-based, Plasmodium falciparum; details: Plasmodium falciparum, read-out: mean IC50 value ± s.d.
# Experimental: as §1, §2
# Dd2b2^31-R2.1 = test: [3H]-hypoxanthine incorporation assay; type: cell-based, Plasmodium falciparum; details: Plasmodium falciparum, read-out: mean IC50 value ± s.d.
# Experimental: as §1, §2
# Dd2b2^WT = test: [3H]-hypoxanthine incorporation assay; type: cell-based, Plasmodium falciparum; details: Plasmodium falciparum, 72 h, read-out: Parent (Dd2b2^WT) IC50
# Experimental: as §1, §2
# Dd2b2^31-R3.1 = test: [3H]-hypoxanthine incorporation assay; type: cell-based, Plasmodium falciparum; details: Plasmodium falciparum, read-out: mean IC50 value ± s.d.
# Experimental: as §1, §2
# [2] = system: Dd2 GNF156 (Dd2 + pfcarl); test: [3H]-hypoxanthine incorporation assay; type: cell-based, Plasmodium falciparum; details: Plasmodium falciparum, DD2, 72 h
# Experimental: (§3) ^[a]72-h [^3H] hypoxanthhine incorporation assay. Data is expressed as mean±s.d..
# (§4) P. falciparum asexual blood stage parasites were cultured in human red blood cells (RBC, Blutspende SRK, Zurich) at a hematocrit of 5% in RPMI 1640 medium. The RPMI 1640 medium (ThermoFisher Scientific #51800−043) was supplemented with the following: 24 mM NaHCO3 (pH 7.3, Sigma-Aldrich #31437−500G-R), 25 mM Hepes (Sigma-Aldrich #H4034−500G), 0.36 mM hypoxanthine (Sigma-Aldrich # H9377−25G), 100 µg mL^-1 neomycin (Sigma-Aldrich #N6386−100G) and 0.5% Albumax II (Thermo Fisher #11021−045). Additionally, 2 mM choline chloride (279 mg/L, Sigma-Aldrich #C7527−100G) was added to the culture to block the induction of sexual commitment as described. ^[31^] The RPMI 1640 medium and components were dissolved in water (Milli-Q purified), stirred for at least 3 h, and then sterile filtered (0.22 μm pore size) with a bottle top filter (Corning # 431118). Parasite cultures were maintained in an atmosphere of 3% O2, 4% CO2, and 93% N2 in air-tight chambers at 37 °C. The [^3H]-hypoxanthine incorporation assay was used to test compound activity in the specific parasite lines as described.^[32^] Briefly, compounds were dissolved in DMSO (10 mM) and diluted in a hypoxanthine-free culture medium. A limiting dilution was performed over a 64-fold range (6-step twofold dilution) in a 96-well plate in duplicates. For every starting concentration, a limiting dilution was performed over a 64-fold range (6-step twofold dilution) in a 96-well plate in two biological duplicates. Parasites were added at 100 µL to each well containing the compound to obtain a final parasitemia of 0.3% and haematocrit of 1.25%. The plates were incubated for 48 h before 0.25 µCi of [^3H]-hypoxanthine was added per well for an additional 24 h. Parasites were harvested on a glass-fiber filter with a Microbeta FilterMate cell harvester (Perkin Elmer, Waltham, USA) and radioactivity was counted using a MicroBeta2 liquid scintillation counter (Perkin Elmer, Waltham, US). The results were recorded, processed by subtraction of the mean background signal obtained from the uninfected RBC controls and expressed as percentage of untreated controls. The fifty percent inhibitory concentration (IC50) was calculated by using nonlinear, four parameter (variable slope) curve fitting as described ^[33^] after importing into GraphPad Prism (version 8.3.0).
# [3] = system: Dd2 DDD107458 (Dd2 + pfeEF2); test: [3H]-hypoxanthine incorporation assay; type: cell-based, Plasmodium falciparum; details: Plasmodium falciparum, DD2, 72 h
# Experimental: as §3, §4
# [4] = system: Dd2 ELQ300 (Dd2 + pfcytb); test: [3H]-hypoxanthine incorporation assay; type: cell-based, Plasmodium falciparum; details: Plasmodium falciparum, DD2, 72 h
# Experimental: as §3, §4
# [5] = system: Dd2 Fosmidomycin (Dd2 + pfdxr); test: [3H]-hypoxanthine incorporation assay; type: cell-based, Plasmodium falciparum; details: Plasmodium falciparum, DD2, 72 h
# Experimental: as §3, §4
# [6] = system: Dd2 DSM265 (Dd2 + pfdhodh); test: [3H]-hypoxanthine incorporation assay; type: cell-based, Plasmodium falciparum; details: Plasmodium falciparum, 72 h
# Experimental: as §3, §4
# P. falciparum K1 = test: [3H]-hypoxanthine incorporation assay; type: cell-based, Plasmodium falciparum; details: Plasmodium falciparum; K1; 72-h assay; mean±s.d.; read-out: IC50
# Experimental: as §3, §4
# [7] = system: Dd2 NITD609 (Dd2 + pfatp4); test: [3H]-hypoxanthine incorporation assay; type: cell-based, Plasmodium falciparum; details: Plasmodium falciparum, DD2, 72 h
# Experimental: as §3, §4
# [8] = system: Dd2 MMV390048 (Dd2 + pfpI4k); test: [3H]-hypoxanthine incorporation assay; type: cell-based, Plasmodium falciparum; details: Plasmodium falciparum, DD2, 72 h
# Experimental: as §3, §4
# P. falciparum Dd2 = test: [3H]-hypoxanthine incorporation assay; type: cell-based, Plasmodium falciparum; details: Plasmodium falciparum, DD2, 72 h
# Experimental: as §3, §4
# 3D7^WT = test: [3H]-hypoxanthine incorporation assay; type: cell-based; details: Plasmodium falciparum, 3D7; 72-h assay; mean±s.d.; read-out: 3D7^WT IC50
# Experimental: ^[a] 72-h [^3H] hypoxanthhine incorporation assay; Data is expressed as mean±s.d.. The assay was performed in three independent biological experiments, each in biological duplicates.
# as §4
# [9] = system: mRNA translation in NF54 trophozoite-stage parasites; test: Surface sensing of translation (SUnSET) assay; type: cell-based, Plasmodium falciparum; details: trophozoites 30–35 hpi; 31 at 3x, 50x, 100x IC50; 34 and pyrimethamine at 3x IC50
# Experimental: To confirm the role of 31 as a translation inhibitor, the surface sensing of translation (SUnSET) assay was employed. This involves incubating the culture with a translation inhibitor, puromycin, a structural analogue of aminoacyl tRNA. Puromycin is incorporated in the nascent polypeptide chain and prevents further elongation. When puromcyin is used in sub‐lethal concentrations, incorporation of puromycin in neosynthesized protein correlates with the levels of mRNA translation (Figure 3c, lane2).^[ [27] ^] […] This trend was further confirmed by the quantified western blot signals (Figures 3d and S4C) that are consistent with the iSPP profiling results.
# SUnSET: The SUnSET assay was done as described in. ^[27^]Tightly synchronized NF54 wild type parasites were treated with the compounds for 4h at 30-35 hpi (trophozoite stage). The following compounds and amounts used were: cycloheximide (3xIC50, 1,2 µM; Calbiochem), pyrimethamine (3xIC50, 21 nM; MedChemExpress), 34 (3xIC50, 12 µM), and 31 (3xIC50, 12 nM; 50xIC50, 200 nM; 100xIC50, 400 nM). Parasites were incubated with 1 µg mL^-1 (Sigma P8833) for 1 h at 37 °C and saponin lysis was performed.
# Saponin lysis and Western blot: Saponin lysis was done on infected RBC at ~5% parasitemia to lyse erythrocytes. Parasite cultures were centrifuged at 1,200 g for 5 min at room temperature. Once the supernatant was discarded, 10 volumes of ice-cold 0.1% (w/v) saponin (Calbiochem 558255, dissolved in PBS, and filtered with 0,22) was added, incubated on ice for 10 min and centrifuged for 2,272 g for 15 min at 4 °C. […] The membrane was washed 3 times in PBS-T (3 min incubation in each washing step) and the signal was detected using the chemiluminescent substrate SuperSignal West Pico Plus (Thermo Scientific, REF 34580) and the imaging system Vilber Fusion FX7 Edge 17.10 SN. Quantification of Western blot signal was done by measuring the integrated density of each lane using ImageJ analysis software (version 1.54p). […]
# Chain of PfIspD (W7KNE8 entry or part of it): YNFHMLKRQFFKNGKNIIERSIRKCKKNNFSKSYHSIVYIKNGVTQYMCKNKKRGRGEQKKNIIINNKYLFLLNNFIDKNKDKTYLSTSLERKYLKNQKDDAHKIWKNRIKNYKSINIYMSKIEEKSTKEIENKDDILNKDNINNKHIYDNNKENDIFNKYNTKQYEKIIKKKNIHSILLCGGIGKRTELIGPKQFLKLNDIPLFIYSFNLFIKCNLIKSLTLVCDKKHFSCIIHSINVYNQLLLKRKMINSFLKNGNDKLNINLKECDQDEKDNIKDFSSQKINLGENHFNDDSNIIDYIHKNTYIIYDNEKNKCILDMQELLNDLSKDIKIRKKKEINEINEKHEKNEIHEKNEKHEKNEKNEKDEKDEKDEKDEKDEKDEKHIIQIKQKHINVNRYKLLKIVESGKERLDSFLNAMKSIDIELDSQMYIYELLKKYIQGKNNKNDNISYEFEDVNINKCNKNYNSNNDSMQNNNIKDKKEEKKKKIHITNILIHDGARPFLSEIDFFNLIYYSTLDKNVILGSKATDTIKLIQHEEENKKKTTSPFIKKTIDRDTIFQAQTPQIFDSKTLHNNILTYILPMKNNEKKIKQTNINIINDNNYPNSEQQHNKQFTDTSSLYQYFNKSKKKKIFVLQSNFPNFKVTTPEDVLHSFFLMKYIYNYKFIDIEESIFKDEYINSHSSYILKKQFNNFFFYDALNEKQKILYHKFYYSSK
structure (smiles),measurement,setting,value
"O=C(Nc1cc(S(=O)(=O)N2CCCC2)ccc1O)c1cccc(Oc2ccccc2)c1 [Compound 1, N-(2-Hydroxy-5-(pyrrolidin-1-ylsulfonyl)phenyl)-3-phenoxybenzamide]",IC50,"[1]; NF54, asexual blood stage, mean ± s.d., read-out: PfNF54 IC50 ± s.d.",592 ± 77.6 nM
same,IC50,PfIspD,15000 ± 4000 nM
"C[C@H]1[C@H](OC(=O)CCC(=O)O)O[C@@H]2O[C@@]3(C)CC[C@H]4[C@H](C)CC[C@@H]1[C@@]24OO3 [Artesunate, artesunate, reference compound]",IC50,"[1]; NF54, 72 h, Table S2, NF54 sensitive strain, 72-h assay, mean±s.d., read-out: IC50",0.4 ± 0.07 nM
same,IC50,Dd2b2^31-R1.1,1.6 ± 0.3 nM
same,IC50,Dd2b2^31-R1.2,2.2 ± 0.6 nM
same,IC50,Dd2b2^31-R2.1,2.6 ± 1.5 nM
same,IC50,Dd2b2^WT,0.5 ± 0.1 nM
same,IC50,Dd2b2^31-R3.1,1.2 ± 0.6 nM
same,IC50,[2],0.2 ± 0.02 nM
same,IC50,[3],0.2 ± 0.2 nM
same,IC50,[4],0.2 ± 0.01 nM
same,IC50,[5],0.2 ± 0.01 nM
same,IC50,[6],0.2 ± 0.01 nM
same,IC50,P. falciparum K1,0.2 ± 0.01 nM
same,IC50,[7],0.2 ± 0.01 nM
same,IC50,[8],0.3 ± 0.1 nM
same,IC50,P. falciparum Dd2,0.3 ± 0.2 nM
same,IC50,3D7^WT,0.6 ± 0.1 nM
"CCc1nc(N)nc(N)c1-c1ccc(Cl)cc1 [Pyrimethamine, reference compound]",mRNA translation (puromycin incorporation),[9],did not reduce mRNA translation
